Source: PubChem BioAssay AID1845205 (Molecular Pharmacology Branch, DTP, NCI, 2023)

Tested on: MPNST multicellular tumor spheroids, viability % test/control
Experiment: Anticancer human tumor MPNST cell line growth inhibition;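 note: spheroids exposed to agents for seven days after three days of growth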;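 for viability, T/C: luminescence signal used as surrogate for viable cell amount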
Conditions: for IC50: curve of first compound; for viability, T/C: stronger effect = lower value
Excerpt: Multicellular complex tumor spheroid response to DNA repair inhibitors in combination with DNA-damaging drugs
This study explores the anticancer activities of DNA-damaging drugs and inhibitors of DNA damage repair, both as single agents and in combinations. Complex tumor spheroids comprised of malignant cells, endothelial cells and mesenchymal stem cells served as an in vitro model for human solid tumors. This model system incorporates physiologically relevant features and patient-derived or established malignant cell lines with clinically relevant genetic alterations from many tumor types. Twenty-six patient-derived or established malignant cell lines were evaluated representing sarcoma, melanoma, small cell lung cancer (SCLC), non-small cell lung cancer (NSCLC), as well as bladder, ovarian and pancreatic cancers. The concentration ranges selected for each drug and investigational agent were based upon clinically achievable concentrations if the clinical Cmax of the agent was known.
Compounds. The drugs and compounds olaparib (NSC753686), talazoparib (NSC767125), berzosertib (NSC777718), elimusertib (NSC800525), nedisertib (NSC802822), VX-984 (NSC792969), AZD-1390 (NSC803789), temozolomide (NSC362856), topotecan (NSC609699), trabectedin (NSC813783), staurosporine (NSC755774), and gemcitabine (NSC613327) were obtained from the National Cancer Institute (NCI) Developmental Therapeutics Program Chemical Repository. The FDA-approved anticancer drug set is available from the Developmental Therapeutics Program at https://dtp.cancer.gov/organization/dscb/obtaining/available_plates.htm. […] The stock solutions were prepared in dimethyl sulfoxide (DMSO, Sigma-Aldrich, St. Louis, MO, cat. D2650) at 400-fold the tested concentration and stored at -70 degrees C. Prior to their use, the stock solutions were diluted in fresh medium and the final DMSO concentration in the assay was 0.25% (v/v). All drugs and investigational agents were tested over a range starting from a high concentration at or near the clinical Cmax and decreasing in half-log increments. If the clinical Cmax for an agent had not been determined, the highest concentration tested was 10 microM.
Cell Lines. The patient-derived cancer cell (PDC) lines: 156681-154-R-J1-PDC, 283228-195-R-J1-PDC, 287954-098-R-J1-PDC, 292921-168-R-J2-PDC, 349418-098-R-PDC, 425362-245-T-J1-PDC, 556581-035-R-J1-PDC, and BL0293-F563-PDC were received from the NCI Patient-Derived Models Repository (PDMR, https://pdmr.cancer.gov). The established cell lines HS-SY-2 (RRID:CVCL_8719), MPNST, and SYO-1 (RRID:CVCL_7146) were obtained from the Sloan Kettering Institute. The alveolar soft parts sarcoma cell line ASPS-1 (RRID:CVCL_S738) was established at the NCI and grown from internal seed stocks. The following established cell lines were purchased from the American Type Culture Collection (ATCC, Manassas, VA): G-401 (ATCC, cat. CRL-1441, RRID:CVCL_0270), SW982 (ATCC, cat. HTB-93, RRID:CVCL_1734), VA-ES-BJ (ATCC, cat. CRL-2138, RRID:CVCL_1785), NCI-H719 (ATCC, cat. CRL-5837, RRID:CVCL_1582), NCI-H196 (ATCC, cat. CRL-5823, RRID:CVCL_1509), NCI-H841 (ATCC, cat. CRL-5845, RRID:CVCL_1595), NCI-H1618 (ATCC, cat. CRL-5879, RRID:CVCL_1480), NCI-H1876 (ATCC, cat. CRL-5902, RRID:CVCL_1503), DMS 114 (ATCC, cat. CRL-2066; RRID:CVCL_1174), NCI-H211 (ATCC, cat. CRL-5824; RRID:CVCL_1529), and SW 1271 (ATCC, cat. CRL-2177, RRID:CVCL_1716). The small cell lung cancer cell line COR-L88 was purchased from Sigma-Aldrich (cat. 92031917-1VL, RRID:CVCL_1141). The non-small cell lung cancer cell lines NCI-H226 (RRID:CVCL_1544) and NCI-H322M (RRID:CVCL_1557) were established at the NCI and grown from internal seed stocks. Pooled donor human umbilical vein endothelial cells (HUVEC, Lonza, cat. CC-2519) and human mesenchymal stem cells (hMSC, Lonza, cat. PT-2501) were purchased from Lonza (Walkersville, MD).
Cell Culture. All cells were maintained in an incubator at 37 degrees C and 5% CO2 with 95% humidity. […]

Cc1cc(C)c(CNC(=O)c2cc(-c3ccc(CN4CCOCC4)cc3)cc3c2cnn3C2CCCC2)c(=O)[nH]1 + CC[C@@]1(O)C(=O)OCc2c1cc1n(c2=O)Cc2cc3c(CN(C)C)c(O)ccc3nc2-1
IC50 (second compound 0.003 µM): > 10 µM | IC50 (second compound 0.00949 µM): > 10 µM | IC50 (second compound 0.03 µM): > 10 µM | IC50 (second compound 0.0949 µM): > 10 µM | IC50 (second compound 0.3 µM): < 0.0316 µM | viability, T/C (second compound 0.003 µM, first compound 0.0316 µM): 86% | viability, T/C (second compound 0.003 µM, first compound 0.1 µM): 79.4% | viability, T/C (second compound 0.003 µM, first compound 0.316 µM): 88.8% | viability, T/C (second compound 0.003 µM, first compound 1 µM): 83.2% | viability, T/C (second compound 0.003 µM, first compound 3.16 µM): 93.3% | viability, T/C (second compound 0.003 µM, first compound 10 µM): 87.5% | viability, T/C (second compound 0.00949 µM, first compound 0.0316 µM): 80.3% | viability, T/C (second compound 0.00949 µM, first compound 0.1 µM): 70% | viability, T/C (second compound 0.00949 µM, first compound 0.316 µM): 91% | viability, T/C (second compound 0.00949 µM, first compound 1 µM): 71.4% | viability, T/C (second compound 0.00949 µM, first compound 3.16 µM): 76.1% | viability, T/C (second compound 0.00949 µM, first compound 10 µM): 78.9% | viability, T/C (second compound 0.03 µM, first compound 0.0316 µM): 55.4% | viability, T/C (second compound 0.03 µM, first compound 0.1 µM): 54.6% | viability, T/C (second compound 0.03 µM, first compound 0.316 µM): 50% | viability, T/C (second compound 0.03 µM, first compound 1 µM): 53% | viability, T/C (second compound 0.03 µM, first compound 3.16 µM): 58.2% | viability, T/C (second compound 0.03 µM, first compound 10 µM): 68.2% | viability, T/C (second compound 0.0949 µM, first compound 0.0316 µM): 51.8% | viability, T/C (second compound 0.0949 µM, first compound 0.1 µM): 52.1% | viability, T/C (second compound 0.0949 µM, first compound 0.316 µM): 51.1% | viability, T/C (second compound 0.0949 µM, first compound 1 µM): 52.4% | viability, T/C (second compound 0.0949 µM, first compound 3.16 µM): 50.3% | viability, T/C (second compound 0.0949 µM, first compound 10 µM): 58.3% | viability, T/C (second compound 0.3 µM, first compound 0.0316 µM): 41.7% | viability, T/C (second compound 0.3 µM, first compound 0.1 µM): 41% | viability, T/C (second compound 0.3 µM, first compound 0.316 µM): 43.2% | viability, T/C (second compound 0.3 µM, first compound 1 µM): 37.8% | viability, T/C (second compound 0.3 µM, first compound 3.16 µM): 42.6% | viability, T/C (second compound 0.3 µM, first compound 10 µM): 45.4%

Cc1sc2c(c1C)C(c1ccc(Cl)cc1)=NC(CC(=O)Nc1ccc(O)cc1)c1nnc(C)n1-2 (stereo not given) + CC[C@@]1(O)C(=O)OCc2c1cc1n(c2=O)Cc2cc3c(CN(C)C)c(O)ccc3nc2-1
IC50 (second compound 0.003 µM): 1.86 µM | IC50 (second compound 0.00949 µM): > 3 µM | IC50 (second compound 0.03 µM): 2.5 µM | IC50 (second compound 0.0949 µM): 1.21 µM | IC50 (second compound 0.3 µM): 0.0106 µM | viability, T/C (second compound 0.003 µM, first compound 0.00949 µM): 113% | viability, T/C (second compound 0.003 µM, first compound 0.03 µM): 98.3% | viability, T/C (second compound 0.003 µM, first compound 0.0949 µM): 85.1% | viability, T/C (second compound 0.003 µM, first compound 0.3 µM): 66.9% | viability, T/C (second compound 0.003 µM, first compound 0.949 µM): 51.9% | viability, T/C (second compound 0.003 µM, first compound 3 µM): 48.4% | viability, T/C (second compound 0.00949 µM, first compound 0.00949 µM): 82% | viability, T/C (second compound 0.00949 µM, first compound 0.03 µM): 85.7% | viability, T/C (second compound 0.00949 µM, first compound 0.0949 µM): 81.8% | viability, T/C (second compound 0.00949 µM, first compound 0.3 µM): 62.4% | viability, T/C (second compound 0.00949 µM, first compound 0.949 µM): 54.5% | viability, T/C (second compound 0.00949 µM, first compound 3 µM): 50.5% | viability, T/C (second compound 0.03 µM, first compound 0.00949 µM): 66.8% | viability, T/C (second compound 0.03 µM, first compound 0.03 µM): 64.1% | viability, T/C (second compound 0.03 µM, first compound 0.0949 µM): 62% | viability, T/C (second compound 0.03 µM, first compound 0.3 µM): 58.1% | viability, T/C (second compound 0.03 µM, first compound 0.949 µM): 51.9% | viability, T/C (second compound 0.03 µM, first compound 3 µM): 49.4% | viability, T/C (second compound 0.0949 µM, first compound 0.00949 µM): 58.4% | viability, T/C (second compound 0.0949 µM, first compound 0.03 µM): 60.1% | viability, T/C (second compound 0.0949 µM, first compound 0.0949 µM): 60.4% | viability, T/C (second compound 0.0949 µM, first compound 0.3 µM): 56.3% | viability, T/C (second compound 0.0949 µM, first compound 0.949 µM): 48.8% | viability, T/C (second compound 0.0949 µM, first compound 3 µM): 45.4% | viability, T/C (second compound 0.3 µM, first compound 0.00949 µM): 50.6% | viability, T/C (second compound 0.3 µM, first compound 0.03 µM): 47.8% | viability, T/C (second compound 0.3 µM, first compound 0.0949 µM): 47.2% | viability, T/C (second compound 0.3 µM, first compound 0.3 µM): 44.9% | viability, T/C (second compound 0.3 µM, first compound 0.949 µM): 37.9% | viability, T/C (second compound 0.3 µM, first compound 3 µM): 33.1%
